{"source": "patent US20240316087A1", "about": "“Compositions And Methods For Inducing Apoptosis In Anaerobic Cells And Related Clinical Methods For Treating Cancer And Pathogenic Infections” (priority 2017, published 2024)", "key": {"[1]": {"test_system": "circulating tumor cells (CTCs)", "test": "Salicinium induction of apoptosis in cultured circulating tumor cells from patient samples", "type": "cell-based, human", "description": "Circulating tumor cells (CTCs) were isolated and characterized from patients with diverse diagnoses of cancer (including a wide variety of primary cancer types, with and without metastasis) using conventional flow cytometry modified to a multiparameter flow cytometric panel employing magnetic bead separation methods to characterize CTCs and isolate them from patient blood samples. In one exemplary modified procedure for isolating and characterizing CTCs from breast cancer patients, the flow cytometry panel included CD45-PE/Cy7, CD31-RPE, pan cytokeratin-PE/Cy5, c-met-PE and MUC-1(CD227)-FITC. CTCs were identified as CD45-/CD31-/PanCK+/MUC1+and metastatic cells as CD45-/c-met+. CTC isolation and cultivation utilized PBMCs from patients isolated using ficoll centrifugation methods and incubated with EpCAM magnetic beads to isolate the CTCs.\nIsolated CTCs were cultured in serum free RPMI medium. […] Apoptosis quantification was based on observed cytoplasmic, nuclear and membrane changes diagnostic for apoptosis. In early stage of apoptosis, cells expand and become round, detach from adjacent cells or substrate and shrink. In the cytoplasm, the endoplasmic reticulum expands and turns vacuolar. In the nucleus, chromatin condenses in a crescent form around the nuclear membranes and becomes more basophilic. Eventually the nucleus fragments and cells convert to apoptotic bodies in containing fragmented nuclear and cellular materials. In vivo these apoptotic bodies are recognized and digested by phagocytes without raising inflammatory responses.\nData were analyzed using SPSS software, and T test methodology was used to compare data sets. A significance level of p<0.05 was considered statistically significant."}, "caspase-9": {"test_system": "caspase-9", "test": "Caspase-9 levels in Salicinium-treated versus control CTC samples", "type": "cell-based, human", "details": "diverse CTCs from different cancer types", "description": "Additional studies evaluated caspase levels in CTC samples treated or untreated with Salicinium. Caspases are major executants of apoptosis. […] During apoptosis these pro-enzymes are converted into active enzymes which mediate apoptosis in part by degrading intracellular proteins, for example cytoskeletal proteins, causing profound morphological changes of cells. Caspase-3 is activated by upstream caspases (caspase-8, caspase-9 or caspase-10), and in turn Caspase-3 activates endonuclease CAD (caspase activated DNase). […] In apoptosis, ICAD is cut by caspase-3 and release CAD, followed by rapid fragmentation of DNA.\nCaspase-9 levels were compared in control CTC samples and Salicinium-treated CTC samples according to conventional assay methods."}, "[2]": {"test_system": "alpha-N-acetylgalactosaminidase (nagalase)", "details": "human, in vivo"}, "[3]": {"test_system": "EBV, hepatitis C, CMV and herpes II virus", "test": "Viral load assays in treated patients", "type": "in vivo, human", "description": "These patients were selected as having been diagnosed with a heavy load, chronic viral infection and/or Stage IV cancer. Some of these subjects presented with only viral infection, and some with only Stage IV cancer, whereas a sizeable group of 64 subjects had co-morbid Stage IV cancer attended by a heavy load chronic viral infection. The principal viral subjects in these studies were Epstein Barr virus (EBV), hepatitis C virus, cytomegalovirus (CMV) and herpes virus.\nNagalase levels and viral load were quantified using conventional assays for each patient, before and after successive iv Salicinium® treatments, and after extended oral Salicinium follow-on therapy (using the […] and oral treatment protocol described in Example II, above)."}, "NK cells": {"test_system": "NK cells", "test": "NK cell cancer-killing activity assay with immune cells from cancer patients", "type": "cell-based, human", "method": "Immune cells were obtained from blood samples of 73 cancer patients. The capability of these immune cells to kill tumor cells in vitro was determined using a conventional cellular NK activity assay (Neri et al, Clin. Diagn. Lab. Immunol. 2001 November; 8(6): 1131-1135).\nControl samples for these assays employed immune cells from patients diagnosed as having no detectable cancer. One exemplary test run (FIG. 4) compared nine patient samples side by side (samples 4 and 5 are controls, from patients with no cancer)."}, "[4]": {"test_system": "proliferating cancer and non-cancer cells and viral-infected cells", "test": "Salicinium uptake into proliferating and viral-infected cells", "type": "cell-based"}, "[5]": {"details": "967 patient CTC samples, helicidum 0.5 mg/ml, 24 hours"}}, "data": [{"substance": "4-(beta-D-allopyranosyloxy)-benzaldehyde [Salicinium]", "values": [{"measurement": "patient CTC samples showing no detectable apoptotic activity", "setting": "[1]; [5]", "result": 18, "unit": "%"}, {"measurement": "patient CTC samples showing statistically significant sensitivity to induction of apoptosis", "setting": "[1]; [5]", "result": 82, "unit": "%"}, {"measurement": "CTC cells in sample undergoing apoptosis", "setting": "[1]; majority of other cancer types tested, single exposure, 24-hour test period", "result": "20-25%"}, {"measurement": "CTC cells in sample undergoing apoptosis", "setting": "[1]; more sensitive cancer types: lung, colorectal, sarcoma and renal cancer, single dose, 24 hours", "result": "30-35%"}, {"measurement": "caspase-9 levels in treated versus control CTC samples", "setting": "caspase-9", "result": "potent induction of elevated caspase-9 levels"}, {"measurement": "median nagalase level", "setting": "[2]", "result": 0.78, "unit": "Units"}, {"measurement": "patients with pronounced reductions in nagalase levels", "setting": "[2]", "result": 83, "unit": "%"}, {"measurement": "study patients with nagalase levels below 0.95 Units (normal range)", "setting": "[2]", "result": 86, "unit": "%"}, {"measurement": "study patients with nagalase levels below 1.0 units", "setting": "[2]", "result": 72, "unit": "%"}, {"measurement": "treated subjects in whom high load viral infection became undetectable", "setting": "[3]; EBV and herpes II subjects, within six months following initial iv treatment", "result": 50, "unit": "%"}, {"measurement": "drop in median viral loads", "setting": "[3]; EBV, hepatitis C, CMV and herpes II, first month", "result": "20-25%"}, {"measurement": "additional drop in median viral loads", "setting": "[3]; EBV, hepatitis C, CMV and herpes II, within three months after treatment", "result": 20, "unit": "%"}, {"measurement": "viral subjects entirely clear of detectable virus", "setting": "[3]; EBV, hepatitis C, herpes virus and CMV, after one year", "result": 87, "unit": "%"}, {"measurement": "average increase in NK cell cancer-killing activity compared to basal", "setting": "NK cells; cumulative samples (73 cancer patients), helicidum 0.5 mg/ml, 24 hours", "result": 2.6, "unit": "times"}, {"measurement": "increase in NK cell cancer-killing activity above basal activity", "setting": "NK cells; exemplary test run, FIG. 4, cancer patient samples, helicidum 0.5 mg/ml, 24 hours", "result": "from about 50% to 2- or 3-fold, up to about 4-fold or higher"}, {"measurement": "increase in NK cell activity in control samples", "setting": "NK cells; immune cells from patients with no detectable cancer, Salicinium present", "result": "little or no increase in NK cell activity"}, {"measurement": "increase of Salicinium uptake compared to healthy cells", "setting": "[4]; often", "result": "2-5 times"}, {"measurement": "increase of Salicinium uptake compared to healthy cells", "setting": "[4]; routinely, GLUT-mediated and other glycome transport", "result": "50-100%"}, {"measurement": "increase of Salicinium uptake compared to healthy cells", "setting": "[4]; up to", "result": "10-15 times"}]}]}
